How the values were obtained:
KRAS G12D = biological target: T1, KRAS G12D (Homo sapiens, UniProt P01116, G12D); test: KRAS G12D HiBit assay; type: cell-based; conditions: AsPc-1-KRAS (G12D)-HiBit-KI cell, compound treatment for 24 hours, absolute DC50
T1 construct: AsPc-1-KRAS (G12D)-HiBit-KI cell (Pharmaron); host or cells: AsPc-1-KRAS (G12D)-HiBit-KI cells (HiBiT knock-in at the endogenous KRAS locus)
Method in brief: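 HiBiT luminescence, detected by adding lytic buffer, substrate and LgBiT protein, served as the KRAS G12D read-out. Compounds, serially diluted 3-fold over 10 points from 0.3 mM DMSO stock, were on cells for 24 h; percent inhibition normalized to cells given 0.1% DMSO only.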

KRAS G12V = biological target: T2, KRAS G12V (Homo sapiens, UniProt P01116, G12V); test: KRAS G12V HiBit assay; type: cell-based; conditions: SW620-KRAS (G12V)-HiBit-KI cells, compound treatment for 24 hours, class symbols
T2 construct: SW620-KRAS (G12V)-HiBit-KI cell (Pharmaron); host or cells: SW620-KRAS (G12V)-HiBit-KI cells (HiBiT knock-in at the endogenous KRAS locus)
Method in brief: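 Luminescence from lytic Nano-Glo HiBiT detection with LgBiT read KRAS G12V levels after 24 h compound exposure. Dilutions were 10-point, 3-fold, from a 0.3 mM DMSO stock. Degradation activity was normalised to cells given 0.1% DMSO alone.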

[1] = numeric bounds given in place of class symbols

T1 sequence (P01116 1-188 isoform P01116-2 G12D): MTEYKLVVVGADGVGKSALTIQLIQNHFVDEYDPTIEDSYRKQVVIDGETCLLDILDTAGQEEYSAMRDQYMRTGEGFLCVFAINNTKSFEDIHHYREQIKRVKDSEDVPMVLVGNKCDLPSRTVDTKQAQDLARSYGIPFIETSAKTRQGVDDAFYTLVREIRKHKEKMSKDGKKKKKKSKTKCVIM
T2 sequence (P01116 1-188 isoform P01116-2 G12V): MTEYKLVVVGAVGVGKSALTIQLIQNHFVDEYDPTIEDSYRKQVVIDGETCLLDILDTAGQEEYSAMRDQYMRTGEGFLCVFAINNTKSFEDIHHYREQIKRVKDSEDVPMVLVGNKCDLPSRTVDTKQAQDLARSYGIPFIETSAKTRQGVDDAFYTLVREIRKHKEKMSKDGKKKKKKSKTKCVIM

| DC50 (KRAS G12D; [1]) | DC50 (KRAS G12V) | DC50 (KRAS G12D; class symbols) | Compound |
| --- | --- | --- | --- |
| > 100 nM | > 100 nM |  | CCc1c(F)ccc2cc(O)cc(-c3ncc4c(N5CCC[C@@](C)(O)C5)nc(OC[C@@]56CCCN5[C@H](CN5CCC(OCCCc7ccc8c(c7)n(C)c(=O)n8C7CCC(=O)NC7=O)CC5)CC6)nc4c3F)c12 (stereo partly drawn) [Compound 486, 3-(5-(3-((1-(((3S,7aS)-7a-(((7-(8-ethyl-7-fluoro-3-hydroxynaphthalen-1-yl)-8-fluoro-4-((R)-3-hydroxy-3-methylpiperidin-1-yl)pyrido[4,3-d]pyrimidin-2-yl)oxy)methyl)hexahydro-1H-pyrrolizin-3-yl)methyl)piperidin-4-yl)oxy)propyl)-3-methyl-2-oxo-2,3-dihydro-1H-benzo[d]imidazol-1-yl)piperidine-2,6-dione] |
|  | < 10 nM | < 100 nM | CCc1cccc2cc(O)cc(-c3cc4nc(OC[C@@]56CCCN5[C@H](COC(=O)N5CCC7(CC5)CC(N5CCC(c8ccc9c(c8)n(C)c(=O)n9C8CCC(=O)NC8=O)CC5)C7)CC6)nc(N5CCC[C@@](C)(O)C5)c4cn3)c12 (stereo partly drawn) [Compound 487, ((3S,7aS)-7a-(((7-(8-ethyl-3-hydroxynaphthalen-1-yl)-4-((R)-3-hydroxy-3-methylpiperidin-1-yl)pyrido[4,3-d]pyrimidin-2-yl)oxy)methyl)hexahydro-1H-pyrrolizin-3-yl)methyl 2-(4-(1-(2,6-dioxopiperidin-3-yl)-3-methyl-2-oxo-2,3-dihydro-1H-benzo[d]imidazol-5-yl)piperidin-1-yl)-7-azaspiro[3.5]nonane-7-carboxylate] |
| > 100 nM | > 100 nM |  | CCc1c(F)ccc2cc(O)cc(-c3ncc4c(N5CCC[C@@](C)(O)C5)nc(OC[C@@]56CCCN5C(COCCCN5CCC(c7ccc8c(c7)n(C)c(=O)n8C7CCC(=O)NC7=O)CC5)CC6)nc4c3F)c12 (stereo partly drawn) [Compound 490, 3-(5-(1-(3-(((7aS)-7a-(((7-(8-ethyl-7-fluoro-3-hydroxynaphthalen-1-yl)-8-fluoro-4-((R)-3-hydroxy-3-methylpiperidin-1-yl)pyrido[4,3-d]pyrimidin-2-yl)oxy)methyl)hexahydro-1H-pyrrolizin-3-yl)methoxy)propyl)piperidin-4-yl)-3-methyl-2-oxo-2,3-dihydro-1H-benzo[d]imidazol-1-yl)piperidine-2,6-dione] |
|  | > 100 nM | < 100 nM | CCc1c(F)ccc2cc(O)cc(-c3ncc4c(N5CCC[C@@](C)(O)C5)cc(OC[C@@]56CCCN5[C@H](COC(=O)N5CCC(CN7CCC(c8ccc9c(c8)n(C)c(=O)n9C8CCC(=O)NC8=O)CC7)CC5)CC6)nc4c3F)c12 (stereo partly drawn) [Compound 492, ((3S,7aS)-7a-(((7-(8-ethyl-7-fluoro-3-hydroxynaphthalen-1-yl)-8-fluoro-4-((R)-3-hydroxy-3-methylpiperidin-1-yl)-1,6-naphthyridin-2-yl)oxy)methyl)hexahydro-1H-pyrrolizin-3-yl)methyl 4-((4-(1-(2,6-dioxopiperidin-3-yl)-3-methyl-2-oxo-2,3-dihydro-1H-benzo[d]imidazol-5-yl)piperidin-1-yl)methyl)piperidine-1-carboxylate] |
|  | 10 to 100 nM | < 100 nM | CCc1c(F)ccc2cc(O)cc(-c3ncc4c(N5CCC[C@@](C)(O)C5)nc(OC[C@@]56CCCN5[C@H](CNC(=O)c5ccc(CN7CCC(c8ccc9c(c8)n(C)c(=O)n9C8CCC(=O)NC8=O)CC7)cc5F)CC6)nc4c3F)c12 (stereo partly drawn) [Compound 494, 4-((4-(1-(2,6-dioxopiperidin-3-yl)-3-methyl-2-oxo-2,3-dihydro-1H-benzo[d]imidazol-5-yl)piperidin-1-yl)methyl)-N-(((3S,7aS)-7a-(((7-(8-ethyl-7-fluoro-3-hydroxynaphthalen-1-yl)-8-fluoro-4-((R)-3-hydroxy-3-methylpiperidin-1-yl)pyrido[4,3-d]pyrimidin-2-yl)oxy)methyl)hexahydro-1H-pyrrolizin-3-yl)methyl)-2-fluorobenzamide] |
|  | 10 to 100 nM | < 100 nM | CCc1c(F)ccc2cc(O)cc(-c3ncc4c(N5CCC[C@@](C)(O)C5)nc(OC[C@@]56CCCN5[C@H](COC(=O)c5ccc(N7CCC(c8ccc9c(c8)n(C)c(=O)n9C8CCC(=O)NC8=O)CC7)cc5)CC6)nc4c3F)c12 (stereo partly drawn) [Compound 495, ((3S,7aS)-7a-(((7-(8-ethyl-7-fluoro-3-hydroxynaphthalen-1-yl)-8-fluoro-4-((R)-3-hydroxy-3-methylpiperidin-1-yl)pyrido[4,3-d]pyrimidin-2-yl)oxy)methyl)hexahydro-1H-pyrrolizin-3-yl)methyl 4-(4-(1-(2,6-dioxopiperidin-3-yl)-3-methyl-2-oxo-2,3-dihydro-1H-benzo[d]imidazol-5-yl)piperidin-1-yl)benzoate] |
| > 100 nM | > 100 nM |  | CCc1c(F)ccc2cc(O)cc(-c3ncc4c(N5CCC[C@@](C)(O)C5)nc(OC[C@@]56CCCN5[C@H](COC(=O)N5CCC(Oc7ccc(-c8ccc9c(c8)n(C)c(=O)n9C8CCC(=O)NC8=O)cc7)CC5)CC6)nc4c3F)c12 (stereo partly drawn) [Compound 496, ((3S,7aS)-7a-(((7-(8-ethyl-7-fluoro-3-hydroxynaphthalen-1-yl)-8-fluoro-4-((R)-3-hydroxy-3-methylpiperidin-1-yl)pyrido[4,3-d]pyrimidin-2-yl)oxy)methyl)hexahydro-1H-pyrrolizin-3-yl)methyl 4-(4-(1-(2,6-dioxopiperidin-3-yl)-3-methyl-2-oxo-2,3-dihydro-1H-benzo[d]imidazol-5-yl)phenoxy)piperidine-1-carboxylate] |
|  | 10 to 100 nM | < 100 nM | CCc1c(F)ccc2cc(O)cc(-c3ncc4c(N5CCC[C@@](C)(O)C5)nc(OC[C@@]56CCCN5[C@H](COc5ccc(CCN7CCC(c8ccc9c(c8)n(C)c(=O)n9C8CCC(=O)NC8=O)CC7)cc5)CC6)nc4c3F)c12 (stereo partly drawn) [Compound 499, 3-(5-(1-(4-(((3S,7aS)-7a-(((7-(8-Ethyl-7-fluoro-3-hydroxynaphthalen-1-yl)-8-fluoro-4-((R)-3-hydroxy-3-methylpiperidin-1-yl)pyrido[4,3-d]pyrimidin-2-yl)oxy)methyl)hexahydro-1H-pyrrolizin-3-yl)methoxy)phenethyl)piperidin-4-yl)-3-methyl-2-oxo-2,3-dihydro-1H-benzo[d]imidazol-1-yl) piperidine-2,6-dione] |
|  | < 10 nM | < 100 nM | CCc1c(F)ccc2cc(O)cc(-c3ncc4c(N5CCC[C@@](C)(O)C5)nc(OC[C@@]56CCCN5[C@H](COC(=O)N5CCC(C)(CN7CCN(c8ccc9c(c8)n(C)c(=O)n9C8CCC(=O)NC8=O)CC7)CC5)CC6)nc4c3F)c12 (stereo partly drawn) [Compound 502, ((3S,7aS)-7a-(((7-(8-ethyl-7-fluoro-3-hydroxynaphthalen-1-yl)-8-fluoro-4-((R)-3-hydroxy-3-methylpiperidin-1-yl)pyrido[4,3-d]pyrimidin-2-yl)oxy)methyl)hexahydro-1H-pyrrolizin-3-yl)methyl 4-((4-(1-(2,6-dioxopiperidin-3-yl)-3-methyl-2-oxo-2,3-dihydro-1H-benzo[d]imidazol-5-yl)piperazin-1-yl)methyl)-4-methylpiperidine-1-carboxylate] |

From patent US12599672B2, “KRAS proteolysis targeting chimeras” (PAQ Therapeutics Inc., priority 2023, dated 2026)
